Patent US12708676B2, “Phosphate compounds for detecting neurological disorders” (Amydis, Inc., priority 2018, dated 2026)
≈ marks a conversion by molar mass, not a printed value. Where two headings read alike, the source gives them in different places.

Columns and labels:
[1] = Rabbit pharmacokinetics of Compound 9, Study 2 (retina, brain, blood/plasma); format: in vivo; settings: rabbit
Protocol: (§1) Compound 9 was injected into rabbits as a solution in 0.1 M phosphate buffer, pH 7.4 such that rabbits received either 30 mg of Compound 9 (Study 1) or 28 mg of Compound 9 (Study 2). The purpose of these studies was to confirm that Compound 9 could easily be converted into Compound 7 in vivo.
Study 2: The purpose of this study was to determine if higher concentrations of Compound 9 and/or Compound 7 was present at earlier time points in the tissues specified. Rabbits received a 1.4 mL injection of a 20 mg/mL solution of Compound 9 in 0.1 M phosphate buffer, pH 7.4. Blood was collected from rabbits (N=6) two minutes after receiving Compound 9 to determine the blood concentration at this time point (Table 8). Rabbits were then sacrificed at the specified time points (N=3 per time point) in the tables below and the average concentrations of Compound 9 and Compound 7 were determined in the retina (Table 6), brain (Table 7) and blood (Table 8).

[2] = target: amyloid deposits associated with CAA (Homo sapiens, UniProt P05067); experiment: Example 8: ex vivo staining of human CAA brain tissue; format: binding
From the text: Post-mortem brain tissue from patients diagnosed with CAA were examined to de-risk the translation from the limited robust preclinical animal models to humans. This study was designed to understand the fundamental basis of fluorescently detecting amyloids using human tissue. […] Human CAA brain tissue and healthy control brain tissue was acquired (University of California, San Diego, CA). […] All CAA patients were female and ranged in age from 70-93 years. Control brains were obtained from cognitively normal patients that ranged in age from 82-94 years from both male and female donors.

Aβ40 [3] = target: Aβ40 (Homo sapiens, UniProt P05067, D694N/E693Q); experiment: Example 8: in vivo retinal imaging and ex vivo IHC of APPSwDI, PSAPP and wild type mice; parameters: species or system mouse; settings: APPSwDI mouse
Aβ40 [4] = experiment: as above; parameters: species or system mouse; settings: PSAPP mouse
α-syn deposits = α-syn deposits (Homo sapiens, UniProt P37840); experiment: Example 9: retinal imaging of Line 61 Parkinson's Disease Tg mouse model; format: in vivo
From the text: Two transgenic mouse models of Parkinson's Disease (D-line and Line 61) were examined for retinal α-syn deposits. The models selected produce α-syn deposition in the brain, but to date production in the retina had not been determined. […] After live imaging, mice were sacrificed, and the brain and retina were harvested for immunofluorescence and biochemistry.
Accordingly, Line 61 model manifest retinal α-syn in ~30% of mice and was useful in showing the utility of the disclosed compounds. […] Brain tissue was extracted post-mortem from mice after the last imaging session and stained with DAPI and a SYN1 antibody confirming the presence of α-syn in the Line 61 Mouse brain.
To confirm objects detected in vivo were α-syn, retinal tissue was extracted post-mortem from mice after the last imaging session and stained with DAPI and a SYN1 antibody (FIG. 11).

prion deposits = prion deposits (Mus musculus, UniProt P04925); format: in vivo; settings: administered as Compound 10
Chain of prion deposits (P04925 23-230 limits assumed): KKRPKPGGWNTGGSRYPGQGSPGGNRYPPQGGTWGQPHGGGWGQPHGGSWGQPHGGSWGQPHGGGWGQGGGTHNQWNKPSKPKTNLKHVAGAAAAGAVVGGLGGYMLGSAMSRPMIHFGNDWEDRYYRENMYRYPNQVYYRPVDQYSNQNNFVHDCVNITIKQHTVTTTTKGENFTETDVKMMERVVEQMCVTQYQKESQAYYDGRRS

Aβ = experiment: Example 4: detection of Aβ in the retina of a TBI (blast) mouse model; format: in vivo; settings: after Compound 9 intravenously, example in present tense
Protocol: This example is conducted to determine whether Compound 9 detects Aβ in the retina of a TBI mouse model.
Blast model mice 24 hours after injury and a non-injured mouse are administered Compound 9 intravenously. Mice retinas are scanned by scanning laser ophthalmoscopy (SLO).
Alternatively, or in addition to retinal scanning, retinal tissues are removed and stained with an anti-Aβ antibody (6E10).

[5] = Solubility of Compound 7 in various media; format: physicochemical
Protocol: The physical properties of Compound 7 were determined.

[6] = Rabbit pharmacokinetics of Compound 9, Study 1 (retina, brain, blood); format: in vivo; settings: for concentration at 15 min / concentration at 30 min / concentration at 60 min: Study 1, 30 mg Compound 9 injected
Protocol: as §1
Study 1: Rabbits received a 1.5 mL injection of a 20 mg/mL solution of Compound 9 in 0.1 M phosphate buffer, pH 7.4. Rabbits were sacrificed at the specified time points (N=3 per time point) in the tables below and the average concentration of Compound 9 and Compound 7 was determined in the retina (Table 3), brain (Table 4) and blood (Table 5).

[7] = brain, other: injection (site or type of injection not stated), Study 2, 28 mg Compound 9 injected, read-out: Avg Conc., brain
[8] = plasma, other: injection (site not specified), Study 2, 28 mg Compound 9 injected, read-out: Avg Conc., plasma
[9] = retina, other: injection (site not stated), Study 2, 28 mg Compound 9 injected, read-out: Avg Conc., retina
[10] = 15 minutes after iv Compound 10
[11] = labelling from in vivo injection of Compound 10
[12] = blood, other: injection (site not specified), read-out: Avg Conc., blood
[13] = retina, other: injection (kind of injection not stated), read-out: Avg Conc., retina

Molecule `N#C/C(=C\c1ccc2cc(N3CCCCC3)ccc2c1)C(=O)NCCOCCOCCO` [Compound 7, (E)-2-cyano-N-(2-(2-(2-hydroxyethoxy)ethoxy)ethyl)-3-(6-(piperidin-1-yl)naphthalen-2-yl)acrylamide] has a concentration at 5 min [1, 7] of 316 ± 91.6 ng/g, a concentration at 10 min [1, 7] of 68.1 ± 8.86 ng/g and a concentration at 2 min ([1]; plasma, other: injection (site not specified), Study 2, 28 mg Compound 9 injected, 2 min, read-out: Avg Conc., plasma) of 1480 ± 409 ng/mL. For the same molecule, the concentration at 5 min [1, 8] was 975 ± 317 ng/mL, the concentration at 10 min [1, 8] was 251 ± 13.9 ng/mL and the “Time at which Kp,brain was highest” value ([1]; post-dose of Compound 9) was 5 min. For the same molecule, the “Delivery past the blood brain barrier and into retinal tissue” value ([1]; via administration of Compound 9 diammonium salt) was “delivered past the blood brain barrier (BBB) and, more importantly, into retinal tissue”, the concentration at 5 min [1, 9] was 682 ± 119 ng/g and the concentration at 10 min [1, 9] was 183 ± 152 ng/g. The concentration at 5 min ([1]; retina, Study 2, 28 mg Compound 9 injected, read-out: Avg Conc., retina) was 682 ng/g, the Staining ([2]; healthy control human brains) was “absent” and the “Staining of amyloid deposits” value ([2]; human CAA brains) was “successfully stains amyloid deposits associated with CAA”. For the same molecule, the “Labelling in brain sections, ex vivo IHC” value (Aβ40 [3]; [10]) was “amyloid deposits along a vessel labeled with Compound 7 and 6E10”, the “Structures labelled in retinal tissue” value (Aβ40 [3]; administered as Compound 10) was “labels both vessels and diffuse deposits in the retinal tissue” and the “Co-localization with 6E10 in retina, ex vivo IHC” value (Aβ40 [3]; [11]) was “co-localized with a sequence specific antibody for Aβ (6E10)”. The “Labelling in brain sections, ex vivo IHC” value (Aβ40 [4]; [10]) was “labeling of amyloid plaques with Compound 7 and 6E10”, the “Co-localization with 6E10 in retina, ex vivo IHC” value (Aβ40 [4]; [11]) was “co-localization of Compound 7 with 6E10” and the “Specificity for α-syn deposits” value (α-syn deposits; Line 61 model, via administration of Compound 10) was “specific for α-syn deposits associated with Parkinson's Disease”. For the same molecule, the “Co-localization with SYN1” value (α-syn deposits; brain and retinal tissue of Tg mice) was “co-localizes with an anti-alpha-synuclein antibody (SYN1)”, the “Labelling of retinal prion deposits in vivo” value (prion deposits; pre-symptomatic prion-inoculated mice) was “successfully labelled large objects around the optic disk and vasculature believed to be prion deposits” and the “Labelling of retinal prion deposits in vivo” value (prion deposits; terminally diseased prion mice) was “successfully labelled large objects around the optic disk and vasculature believed to be prion deposits”. The “Fluorescent labelling of retinal deposits” value (Aβ; mouse with blast injury) was “fluorescently labels retinal deposits that are visible upon fluorescent activation”, the “Fluorescent enhancement in retinal tissue” value (Aβ; uninjured mouse) was “does not display any fluorescent enhancement” and the solubility ([5]; SGF, simulated gastric fluid) was 3600 µg/mL (≈ 8230 µM). For the same molecule, the solubility ([5]; castor oil, oil or lipid) was over 9000 µg/mL, the solubility ([5]; n-octanol, organic solvent or mixture) was over 8000 µg/mL and the solubility ([5]; pH 4.0 buffer, pH 4, aqueous buffer) was 70 µg/mL (≈ 160 µM). For the same molecule, the solubility ([5]; pH 7.0 buffer, pH 7, aqueous buffer) was 4.6 µg/mL (≈ 10.5 µM), the solubility ([5]; pH 7.4 buffer, pH 7.4, aqueous buffer) was 3.3 µg/mL (≈ 7.54 µM) and the solubility ([5]; pH 9.0 buffer, pH 9, aqueous buffer) was 4.8 µg/mL (≈ 11 µM). The solubility ([5]; water) was 1.7 µg/mL (≈ 3.89 µM), the “Kp,brain by 30 minutes” value ([6]; 30 minutes after injection of Compound 9) was “significantly decreased to undetectable values” and the concentration at 15 min [6, 12] was 217 ± 31.2 ng/mL. It also gave a concentration at 30 min [6, 12] of 9.41 ± 1.89 ng/mL, a concentration at 60 min [6, 12] of 2.1 ± 2.43 ng/mL and a concentration at 15 min ([6]; brain, other: injection (site not specified), read-out: Avg Conc., brain) of 0.987 ± 0.273 ng/g. For the same molecule, the “Circulation time in the retina” value ([6]; levels significantly decreasing over an hour) was “relatively short”, the concentration at 15 min [6, 13] was 10.1 ± 7.3 ng/g and the concentration at 30 min [6, 13] was 2.13 ± 1.71 ng/g. It also gave a concentration at 60 min [6, 13] of 0.779 ± 0.325 ng/g.
